One experiment deals with T1, PDE4D3 (Homo sapiens, UniProt Q08499).
T1 construct: targets used in the assays are full-length proteins (as opposed to simply the catalytic domain); expressed in transfected cells; host or cells: Schizosaccharomyces pombe, PDE gene integrated in place of cgs2
Briefly: 5FOA growth assay in fission yeast strain expressing PDE4D3. The following applies: for EC50: OD600 0.6, read-out: ED50 for 5FOA growth assays, PDE4D3. In kind it is cell-based. As to the method:
Cells were pregrown in EMM medium [MP Biomedicals (Solon, Ohio), 3% glucose, filter-sterilized to avoid carmelization, which would introduce variability into the optical density of the medium] containing from 0 mM to 2.5 mM cAMP (or either 0.5 mM or 1.0 mM cGMP). This was to repress expression of the fbp1-ura4 reporter prior to exposure of cells to 5FOA medium. Cells were grown at 30° C. to exponential phase (approximately 10^7 cells/ml). […] Starting cell concentrations ranged from 0.5×10^5 to 4×10^5 cells/ml depending on the screening strain. […] Other positive control dishes contained 5 mM cAMP in the 5FOA medium for PDEs that lack appropriate control compounds. Cultures were grown for 48 hours at 30° C., sealed in an airtight container with moist paper towels to prevent evaporation. Optical densities (OD600) of cultures were measured using a microplate reader. Bioinformatic analysis of the results to determine composite Z scores was performed as previously described (1, 3).

The target of the next experiment is PDE7A (Homo sapiens, UniProt Q13946). Description: 5FOA growth assay in fission yeast strain expressing PDE7A. Format: cell-based. Further details: targets used in the assays are full-length proteins (as opposed to simply the catalytic domain); expressed in transfected cells; host or cells: Schizosaccharomyces pombe, PDE gene integrated in place of cgs2. The note with it: for EC50: OD600 0.6, read-out: ED50 for 5FOA growth assays, PDE7A; for Composite Z score, PDE7A: high throughput 5FOA growth screen. The method in brief:
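Growth stimulation, reported as composite Z scores, was read as OD600 after 48 h at 30 °C in 5FOA medium. Before this, reporter (fbp1-ura4) yeast were grown at 30 °C in EMM with 0–2.5 mM cAMP or 0.5/1.0 mM cGMP to repress the reporter, then exposed to 100 nl pinned compound (stocks generally 10 mM).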

Another experiment has as its target T2, PDE4A1 (Mus musculus, UniProt O89084).
T2 construct: targets used in the assays are full-length proteins (as opposed to simply the catalytic domain); expressed in transfected cells; host or cells: Schizosaccharomyces pombe, PDE gene integrated in place of cgs2
T2 sequence (O89084 1-610 isoform O89084-2): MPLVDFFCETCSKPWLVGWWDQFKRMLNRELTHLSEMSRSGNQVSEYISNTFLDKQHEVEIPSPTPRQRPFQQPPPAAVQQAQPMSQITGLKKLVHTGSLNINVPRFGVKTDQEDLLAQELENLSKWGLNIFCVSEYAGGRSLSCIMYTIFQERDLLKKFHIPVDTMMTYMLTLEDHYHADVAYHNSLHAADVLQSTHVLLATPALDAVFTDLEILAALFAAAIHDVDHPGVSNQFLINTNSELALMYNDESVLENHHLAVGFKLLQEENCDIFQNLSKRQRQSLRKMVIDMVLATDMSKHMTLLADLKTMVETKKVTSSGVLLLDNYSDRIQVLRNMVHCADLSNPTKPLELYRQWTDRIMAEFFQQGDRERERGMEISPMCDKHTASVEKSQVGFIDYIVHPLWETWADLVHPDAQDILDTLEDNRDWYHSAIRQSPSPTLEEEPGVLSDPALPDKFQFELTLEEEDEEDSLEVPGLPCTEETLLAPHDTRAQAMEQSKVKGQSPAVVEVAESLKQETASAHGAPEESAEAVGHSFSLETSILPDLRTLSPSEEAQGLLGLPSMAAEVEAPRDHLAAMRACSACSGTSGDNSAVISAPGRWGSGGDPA
Description: cAMP response in yeast strain expressing PDE4A1. In kind it is cell-based, Murine. The text has this: Values represent the average and SD of two or three independent experiments. […] The strains used are as in FIG. 5A, together with strain CHP1141 (PDE8A). Values represent the average and SD of two or three independent experiments.
Thus, PDE inhibition can be indirectly quantitated by measuring the effect of a compound on cAMP levels in target yeast strains.

The target in a further experiment is T3, PDE4D2 (Homo sapiens, UniProt Q08499).
T3 construct: targets used in the assays are full-length proteins (as opposed to simply the catalytic domain); expressed in transfected cells; host or cells: Schizosaccharomyces pombe
Briefly: cAMP response in yeast strain expressing PDE4D2. In kind it is cell-based.

Experiment [1] deals with PDE4A, PDE4B, PDE4D, PDE7A, PDE7B, PDE8A, PDE3A. Description: Summary of PDE inhibitor profile. Details: key to inhibitor class, Table 15: (1): Strong PDE4A5 inhibitor; (2): Strong PDE4A, 4B inhibitor; Moderate PDE4D inhibitor; (3): Strong PDE4A. 4B inhibitor; (4): Strong PDE4A, 4B, PDE7A inhibitor: Weak PDE4D inhibitor; key to inhibitor class, Table 16: (1): Weak PDE7A inhibitor; (2): Strong PDE7A inhibitor; (3): Lillte/no activity under conditions used; (4): Weak PDE4A inhibitor.

The subject of a further experiment is U937 cells. Briefly: TNF alpha release by LPS-treated U937 cells. Format: cell-based. The note with it: for TNF alpha, % vehicle control: 10 uM cmpd, 0 uM BC30.

Entries after “also recorded” stand apart in the source; their conditions may differ.

T3 sequence (Q08499 303-809): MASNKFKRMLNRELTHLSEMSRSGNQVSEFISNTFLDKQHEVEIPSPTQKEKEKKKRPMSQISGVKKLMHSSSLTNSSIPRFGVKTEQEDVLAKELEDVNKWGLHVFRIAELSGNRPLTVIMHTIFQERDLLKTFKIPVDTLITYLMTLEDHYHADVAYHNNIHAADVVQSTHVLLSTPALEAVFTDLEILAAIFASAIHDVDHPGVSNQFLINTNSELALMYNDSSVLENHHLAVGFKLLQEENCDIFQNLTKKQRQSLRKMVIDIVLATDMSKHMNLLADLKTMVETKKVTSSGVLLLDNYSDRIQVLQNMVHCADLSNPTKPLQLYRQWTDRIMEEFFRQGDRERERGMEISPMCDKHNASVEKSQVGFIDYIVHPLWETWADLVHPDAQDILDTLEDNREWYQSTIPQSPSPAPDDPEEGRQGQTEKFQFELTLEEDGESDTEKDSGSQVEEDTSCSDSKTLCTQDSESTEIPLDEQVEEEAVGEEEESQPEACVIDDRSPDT
Sequence of PDE7A (Q13946 whole entry, the tested form may be a part): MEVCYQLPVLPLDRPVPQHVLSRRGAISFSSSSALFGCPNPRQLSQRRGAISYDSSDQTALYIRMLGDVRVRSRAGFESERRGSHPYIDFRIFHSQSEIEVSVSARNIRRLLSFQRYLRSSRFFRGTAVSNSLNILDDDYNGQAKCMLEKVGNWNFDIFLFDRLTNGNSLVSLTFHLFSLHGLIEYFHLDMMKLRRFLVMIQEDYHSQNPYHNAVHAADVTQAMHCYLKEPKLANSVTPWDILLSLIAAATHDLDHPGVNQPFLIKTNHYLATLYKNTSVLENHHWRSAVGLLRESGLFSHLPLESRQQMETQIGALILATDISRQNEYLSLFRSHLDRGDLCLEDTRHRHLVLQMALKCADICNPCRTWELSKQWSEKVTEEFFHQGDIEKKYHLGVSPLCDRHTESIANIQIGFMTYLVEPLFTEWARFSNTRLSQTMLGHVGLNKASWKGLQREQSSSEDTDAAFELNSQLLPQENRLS
T1 sequence (Q08499 1-673 isoform Q08499-2): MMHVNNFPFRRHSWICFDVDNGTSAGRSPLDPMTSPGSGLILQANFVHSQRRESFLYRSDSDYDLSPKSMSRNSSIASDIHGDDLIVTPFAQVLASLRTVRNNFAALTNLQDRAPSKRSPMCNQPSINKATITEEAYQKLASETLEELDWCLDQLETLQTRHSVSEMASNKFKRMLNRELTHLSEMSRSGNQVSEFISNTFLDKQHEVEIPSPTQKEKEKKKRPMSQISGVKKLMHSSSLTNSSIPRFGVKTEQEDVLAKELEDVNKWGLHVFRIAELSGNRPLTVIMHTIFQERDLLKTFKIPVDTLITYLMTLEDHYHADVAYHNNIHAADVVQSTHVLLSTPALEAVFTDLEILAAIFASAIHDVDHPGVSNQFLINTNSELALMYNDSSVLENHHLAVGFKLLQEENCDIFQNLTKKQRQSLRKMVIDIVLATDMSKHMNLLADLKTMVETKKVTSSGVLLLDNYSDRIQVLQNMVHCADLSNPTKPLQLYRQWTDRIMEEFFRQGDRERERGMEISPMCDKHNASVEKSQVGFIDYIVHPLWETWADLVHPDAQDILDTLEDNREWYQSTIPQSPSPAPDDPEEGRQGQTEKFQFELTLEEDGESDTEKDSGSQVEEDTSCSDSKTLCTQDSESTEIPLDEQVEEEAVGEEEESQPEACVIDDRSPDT

`COc1ccc2c(c1)[C@@]1(C)CCC[C@](C)(CO)C1CC2` (stereo partly drawn) [Compound 2067M03]: the “2 Assay (2 uM), 4D3” value at PDE4D3 (PDE 4D3) is “ND 1.24 ND ND ND”. Also, at PDE7A (PDE 7A), the “2 Assay (2 uM), 7A” value is 8.65 and the “1 Assay (20 uM) 7A” value is listed as 104.31.

Take `COC(=O)C1=C(C)N(C2CCCCC2)C(=O)/C1=C\c1cccs1` [Compound 22]: the “2 Assay (2 uM), 4D3” value at PDE4D3 is reported as 42.32. The “cAMP Response (% rolipram), 4A1” value on PDE4A1 turned out to be 54.00 % rolipram. For the same compound, the “cAMP Response (% rolipram), 4D2” value on PDE4D2 is “ND ND ND 34.00 ND % rolipram”. In experiment [1], the “inhibitor class, Table 15” value was 22 (4). On PDE7A, the “2 Assay (2 uM), 7A” value was determined as 57.22 and the “1 Assay (20 uM) 7A” value stood at 132.82.

With `Cc1ccc2c(c1)CCC1CC(=O)CC[C@]21C` (stereo partly drawn) [Compound 2158J12], at PDE4D3 (PDE 4D3), the “2 Assay (2 uM), 4D3” value was determined as 40.17. Also, at PDE4D3 (20 uM, PDE 4D3), the “1 Assay (20 uM) 4D3” value came to 14.84. Also, at PDE7A (PDE 7A), the “2 Assay (2 uM), 7A” value came out at 29.01 and the “1 Assay (20 uM) 7A” value was found to be 74.45.

On to `Cc1sc2ncnc(Nc3ccccc3)c2c1C` [BC64], for which the EC50 on PDE4D3 is above 200 µM. The “PDE inhibitor profile, in words” value in experiment [1] is reported as “moderate PDE7 inhibitor”. Besides, at PDE7A, the EC50 is above 200 µM and the “Composite Z score, PDE7A” value was 55.035.

Turning to `CCN(CC)c1ncnc2sc3c(c12)CCCC3` [BC44], the EC50 at PDE4D3 came to 3.3 µM. The “PDE inhibitor profile, in words” value in experiment [1] was “very good PDE4 and PDE7 inhibitor, with low PDE4D inhibition”. For the same compound, at PDE7A, the “Composite Z score, PDE7A” value is recorded as 177.31.

`CCC1CCc2c(sc3ncnc(N4CCOCC4)c23)C1` (stereo not drawn) [BC33]: the EC50 on PDE4D3 turned out to be 33 µM. Further, the “PDE inhibitor profile, in words” value in experiment [1] is recorded as “PDE4 inhibitor. It also shows some activity on PDE4D3 (but not 4D2)”. For the same compound, on PDE7A, the EC50 is above 200 µM and the “Composite Z score, PDE7A” value was −0.794.

In the case of `Cc1c(C(=O)Nc2ccc(F)cc2F)sc2ncnc(N3CCC(C)CC3)c12` [BC58], in experiment [1], the “PDE inhibitor profile, in words” value is reported as “effective PDE4A/4B inhibitor that exhibits limited/essentially no inhibition of PDE4D; also recorded: PDE4A/4B-specific inhibitor”. In addition, the “Composite Z score, PDE7A” value on PDE7A turned out to be 24.881. The “TNF alpha reduction, conclusion in words” value in the experiment with U937 cells is “good PDE4 inhibitor activity”.

With `N#Cc1sc2sc(C#N)c(-c3ccco3)c2c1N` [Compound 30], at PDE4A1 (Table 16, unit not given), the “cAMP Response, 4A1” value was found to be 65.7. Also, the “cAMP Response, 4D2” value at PDE4D2 (Table 16, unit not given) is “ND ND ND 7.5 ND”. For the same compound, in experiment [1], the “inhibitor class, Table 16” value is listed as 30 KM03472 (2). In the experiment on U937 cells (3 HOURS), the TNF came to 3317 pg/mL and the “TNF, % EtOH cntrl” value came to 68.7%. Further, in the experiment on U937 cells (20 HOURS), the TNF stood at 7481 pg/mL and the “TNF, % EtOH cntrl” value is given as 54.7%.

For `COC(=O)C1=C(C)N(c2ccccc2Cl)C(=O)/C1=C\c1cccs1` [Compound 27], the “2 Assay (2 uM), 4D3” value at PDE4D3 is 0.00. In addition, the “cAMP Response (% rolipram), 4A1” value at PDE4A1 is given as 78.00 % rolipram. The “cAMP Response (% rolipram), 4D2” value on PDE4D2 is reported as “ND ND ND 11.00 ND % rolipram”. The “inhibitor class, Table 15” value in experiment [1] is listed as 27 (3). Also, the “2 Assay (2 uM), 7A” value at PDE7A is 5.07. For the same compound, on PDE7A, the “1 Assay (20 uM) 7A” value is 2.34. The “TNF alpha, % vehicle control” value in the experiment with U937 cells (after 3 h.) was found to be 75.3%; in the experiment on U937 cells (after 20 h.) it was 78.3%.
